Measured values reported in US20250250303A1 (THE TRUSTEES OF COLUMBIA UNIVERSITY IN THE CITY OF NEW YORK, priority 2022, published 2025).
Blank lines part the entries; values can stand above or below the molecule they belong to. Bridge positions count the residues as written; N and C are the ends. Ends that are not written are not given here.

Legend:
Insulin tolerance test = format: in vivo, mice; details: intraperitoneal; for blood glucose levels in ITT: FIGS. 10A, 8F, 8G; for blood glucose in insulin tolerance assays: FIGS. 12B, 12C
Method: Insulin tolerance tests were performed as described previously with some modification. Briefly, 2-3 months old male mice were fasted for 2 hr. and their blood glucose levels (T=0) were measured with tail bleeding using a glucometer (AlphaTRAK). After then, mice were injected intraperitoneally with Humulin (6 nmol/kg body weight), S597 (9 nmol/kg), S597-S20D (9 nmol/kg), S597-W6A (9 nmol/kg), S597-F27A (9 nmol/kg), or S597-N20 (27 nmol/kg), and their blood glucose levels were measured at the indicated time points after injection.

[1] = Chronic treatment by osmotic minipump; format: in vivo, mice
Source text: 2-month-old male mice were implanted with osmotic minipump releasing Humulin (0.2 U/day), S597 (0.3 U/day), or S597-S20D (0.3 U/day). […] Hepes, N=7; Humulin, N=8; S597, N=7; S597-S20D, N=4. […] Hepes, N=7; Humulin, N=8; S597, N=9; S597-S20D, N=4. Two-way ANOVA followed by Tukey's multiple comparisons test. […] Mean±SEM. Hepes, N=8; Humulin, N=7; S597, N=9; S597-S20D, N=5. […] Hepes, N=4; Humulin and S597 analogs, N=5. two-tailed Student's t-test. All graphs show Mean±SEM.
To examine the long-term effects of S597 in vivo, C57BL/6J WT mice were implanted with osmotic minipumps releasing either HEPES, Humulin, or mimetics. […] Consistent with previous work, chronic treatment of Humulin increased body weight (FIGS. 11E, 11F).

IR wild-type (WT) = target: T1, IR wild-type (WT) (Homo sapiens, UniProt P06213); experiment: IR activation (auto-phosphorylation) assay in 293 FT cells expressing IR WT; format: cell-based; details: 293 FT cells expressing IR WT; 10 nM for 10 min
T1 construct: expressed in transfected cells; host or cells: 293 FT cells
Method: The insulin receptor signaling assay was performed as described earlier with some modifications. For the activation assay, the short isoform of human IR in pCS2-MYC was used as described previously. Plasmid transfections into 293 FT cells were performed with Lipofectamin™ 2000 (Invitrogen).
(§1) The cells were incubated with the lysis buffer B [50 mM Hepes pH 7.4, 150 mM NaCl, 10% Glycerol, 1% Triton X-100, 1 mM EDTA, 100 mM sodium fluoride, 2 mM sodium orthovanadate, 20 mM sodium pyrophosphate, 0.5 mM dithiothreitol (DTT), 2 mM phenylmethylsulfonyl fluoride (PMSF)] supplemented with complete Protease Inhibitor Cocktail (Roche), PhosSTOP (Sigma), and 25 U/ml turbo nuclease (Accelagen) on ice for 1 hr. After centrifuge at 20,817 g at 4° C. for 10 min, the concentrations of cell lysate were measured using Micro BCA Protein Assay Kit (Thermo Scientific). About 50-60 μg total proteins were analyzed by SDS-PAGE and quantitative Western blotting. The following antibodies were purchased from commercial sources: Anti-IR-pY1150/1151 (WB, 1:1000; 19H6; labeled as pY IR, Cat. #3024), anti-AKT (WB, 1:1000; 40D4, Cat. #2920), anti-pS473 AKT (WB, 1:1000; D9E, Cat. #4060), anti-ERK1/2 (WB, 1:1000; L34F12, Cat. #4696), anti-pERK1/2 (WB, […]; 197G2, Cat. #4377), anti-IRS1-pS616 (WB, 1:1000; C15H5, Cell Signaling, Cat. #3203); anti-IRS1 (WB, 1:1000; A301-158A, Bethyl Laboratory); anti-IR (WB, 1:500, CT-3, Santa Cruz; labeled as IR for primary hepatocytes and MEFs, Cat. #sc-57342); anti-IR (WB, 1:1000; EPR23566-103; labeled as IR for FIG. 31, ab278100, Abcam); anti-Myc (WB, 1:2000; 9E10, Cat. #11667149001, Roche; labeled as IR for 293 FT cells). For quantitative western blots, anti-rabbit immunoglobulin G (IgG) (H+L) (WB, 1:5000; Dylight 800 conjugates, Cat. #5151) and anti-mouse IgG (H+L) (WB, 1:5000; Dylight 680 conjugates, Cat. #5470) (Cell Signaling) were used as secondary antibodies. The membranes were scanned with the Odyssey Infrared Imaging System (Li—COR, Lincoln, NE).

IR signaling [2] = experiment: IR signaling in primary mouse hepatocytes; format: cell-based
Method: Primary hepatocytes were isolated from 2-month-old male mice with a standard two-step collagenase perfusion procedure as described earlier with some modifications. […] After 1-2 sec upon appearance of white spots in the liver, the portal vein was cut with scissors to wash out blood, and then the liver was perfused with 30 ml of Liver Digest Medium (Thermo Scientific, Cat. #17703034). Dissected liver was gently washed with low glucose DMEM and transferred to sterile culture dish containing 15 ml Liver Digest Medium. The isolated liver cells were filtered through the 70 μm cell strainer into a 50 ml tube. After centrifuge at 50 g for 5 min at 4° C., cells were washed with cold low glucose DMEM three times. […] After 2 hr., the medium was changed to serum free low-glucose DMEM.
as §1

IR signaling [3] = experiment: Insulin signaling in vivo (liver, skeletal muscle, WAT lysates, western blot); parameters: species or system mice; details: WAT; compared to vehicle treated conditions
Method: 2-3 months old male mice were fasted overnight. […] Livers were removed at 3 min after injection. White adipose tissue and skeletal muscles were removed at 5 min and 7 min after injection, respectively. Tissues were mixed with the lysis buffer B supplemented with complete Protease Inhibitor Cocktail (Roche), PhosSTOP (Sigma), and 25 U/ml turbo nuclease (Accelagen), homogenized with FisherbrandTM Bead Mill homogenizer, and then incubated on ice for 1 hr. After centrifuge at 20,817 g at 4° C. for 30 min, the concentrations of cell lysate were measured using Micro BCA Protein Assay Kit (Thermo Scientific). The lysates were then analyzed by quantitative western blotting.

SREBP1 = experiment: Immunofluorescence assay for SREBP1 translocation in primary hepatocytes; format: cell-based, mouse; details: 100 nM for 30 min
Method: Primary hepatocytes were as described in the primary hepatocyte isolation section. […] Cells were fixed with 4% paraformaldehyde for 10 min. The fixed cells were incubated with PBS for 30 min and 3% BSA in PBS with 0.1% Triton X-100 (0.1% PBST) for 1 hr., and then treated with anti-SREBP1 antibodies (20B12, Millipore, Cat. #MABS1987, 1:200) in 3% BSA in 0.1% PBST at 4° C. overnight. After being washed, cells were incubated with secondary antibodies (Alexa Fluor 488 goat anti-rabbit, Invitrogen, Cat. #A11008, 1:200) for 1 hr. Cells were washed and mounted on microscope slides in ProLong Gold Antifade reagent with DAPI (Invitrogen). Images were acquired as a series of 0.2 μm stacks with a Leica Thunder Imager (Leica Microsystems Inc.). Raw images were deconvolved using LAS X Software (Leica Microsystems Inc.). The nuclear edges and the nuclear SREBP1 signal were defined with Image J. Identical exposure times and magnifications were used for all comparative analyses.

C2C12 cells = experiment: MTT assay in C2C12 cells; format: cell-based
Method: To examine the function of […] on cell viability and growth, an MTT assay was performed in C2C12 cells.

[4] = target: T2, full-length mouse insulin receptor, short isoform, D1122N Y962F (mouse, UniProt P15208 28-1372); experiment: cryo-EM of full-length IR with S597-N20
T2 construct: mature; Residue numbers are as printed; also called MmIR; IR
Method: (§2) The cryo-EM grid was prepared by applying 3 μl of the protein samples (6 mg/ml) to glow-discharged Quantifoil R1.2/1.3 300-mesh gold holey carbon grids (Quantifoil, Micro Tools GmbH, Germany). Grids were blotted for 4.0 seconds under 100% humidity at 4° C. before being plunged into the liquid ethane using a Mark IV Vitrobot (FEI). Micrographs were acquired on a Titan Krios microscope (FEI) operated at 300 kV with a K3 direct electron detector (Gatan), using a slit width of 20 eV on a GIF-Quantum energy filter. SerialEM 3.8 was used for the data collection. […] The defocus range was set from 1.6 μm to 2.6 μm. Each micrograph was dose-fractionated to 30 frames with a total dose of about 60 e⁻/Å².

[5] = target: T2, full-length mouse insulin receptor, …; experiment: cryo-EM of full-length IR with S597, 5.4 Å
Method: as §2

T1 sequence (P06213 28-1370 isoform P06213-2 limits assumed): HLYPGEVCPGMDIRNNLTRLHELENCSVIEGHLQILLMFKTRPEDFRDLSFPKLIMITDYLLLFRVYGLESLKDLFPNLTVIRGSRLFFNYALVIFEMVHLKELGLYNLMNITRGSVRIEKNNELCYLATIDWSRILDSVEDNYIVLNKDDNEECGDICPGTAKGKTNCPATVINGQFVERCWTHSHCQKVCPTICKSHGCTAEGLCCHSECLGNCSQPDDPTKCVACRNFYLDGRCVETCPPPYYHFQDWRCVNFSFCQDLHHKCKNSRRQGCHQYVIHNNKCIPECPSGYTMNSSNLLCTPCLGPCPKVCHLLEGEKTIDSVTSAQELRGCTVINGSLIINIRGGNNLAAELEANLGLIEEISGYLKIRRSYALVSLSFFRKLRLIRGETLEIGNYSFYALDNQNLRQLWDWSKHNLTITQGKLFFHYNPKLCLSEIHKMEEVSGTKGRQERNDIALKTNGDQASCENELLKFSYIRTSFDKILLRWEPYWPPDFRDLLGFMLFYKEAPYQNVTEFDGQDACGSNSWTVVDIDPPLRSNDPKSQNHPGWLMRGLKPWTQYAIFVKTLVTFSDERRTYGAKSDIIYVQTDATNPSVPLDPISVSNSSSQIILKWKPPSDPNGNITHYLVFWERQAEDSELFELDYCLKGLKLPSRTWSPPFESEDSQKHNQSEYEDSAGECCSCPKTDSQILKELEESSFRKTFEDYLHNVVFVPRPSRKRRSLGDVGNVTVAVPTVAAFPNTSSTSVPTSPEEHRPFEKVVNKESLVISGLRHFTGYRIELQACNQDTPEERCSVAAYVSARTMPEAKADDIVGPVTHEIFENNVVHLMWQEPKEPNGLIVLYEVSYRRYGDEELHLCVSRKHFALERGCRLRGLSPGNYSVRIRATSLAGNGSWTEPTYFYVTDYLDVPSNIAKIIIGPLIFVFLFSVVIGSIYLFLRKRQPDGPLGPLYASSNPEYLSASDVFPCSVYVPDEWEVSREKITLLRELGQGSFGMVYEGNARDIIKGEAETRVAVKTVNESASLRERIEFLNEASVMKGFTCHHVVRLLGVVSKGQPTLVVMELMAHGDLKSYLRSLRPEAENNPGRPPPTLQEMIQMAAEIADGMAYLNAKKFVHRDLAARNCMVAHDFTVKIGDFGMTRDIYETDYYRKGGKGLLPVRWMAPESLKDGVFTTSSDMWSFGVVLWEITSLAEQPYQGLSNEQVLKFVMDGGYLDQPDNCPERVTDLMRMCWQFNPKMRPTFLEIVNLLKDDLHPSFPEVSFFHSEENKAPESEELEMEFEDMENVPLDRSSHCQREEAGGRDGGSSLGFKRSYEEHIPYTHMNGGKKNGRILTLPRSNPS
T1 sequence (P06213 763-1382 partner limits assumed): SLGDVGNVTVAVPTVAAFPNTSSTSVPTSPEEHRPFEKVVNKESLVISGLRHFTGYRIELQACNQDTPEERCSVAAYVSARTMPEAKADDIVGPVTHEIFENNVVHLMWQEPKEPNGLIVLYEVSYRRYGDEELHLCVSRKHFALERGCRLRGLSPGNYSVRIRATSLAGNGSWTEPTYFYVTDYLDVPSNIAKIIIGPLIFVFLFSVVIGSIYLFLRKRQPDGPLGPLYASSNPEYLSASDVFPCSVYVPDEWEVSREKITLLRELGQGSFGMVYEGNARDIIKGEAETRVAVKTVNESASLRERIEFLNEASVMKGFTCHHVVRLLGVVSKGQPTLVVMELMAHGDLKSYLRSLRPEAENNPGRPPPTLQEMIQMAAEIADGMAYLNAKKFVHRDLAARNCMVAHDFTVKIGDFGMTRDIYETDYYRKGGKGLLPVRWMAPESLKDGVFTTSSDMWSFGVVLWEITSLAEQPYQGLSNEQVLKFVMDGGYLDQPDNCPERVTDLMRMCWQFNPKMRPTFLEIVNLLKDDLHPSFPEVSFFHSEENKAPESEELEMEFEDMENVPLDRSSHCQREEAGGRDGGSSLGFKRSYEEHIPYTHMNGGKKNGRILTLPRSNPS
T2 sequence (P15208 28-1372 Y989F/D1149N limits assumed): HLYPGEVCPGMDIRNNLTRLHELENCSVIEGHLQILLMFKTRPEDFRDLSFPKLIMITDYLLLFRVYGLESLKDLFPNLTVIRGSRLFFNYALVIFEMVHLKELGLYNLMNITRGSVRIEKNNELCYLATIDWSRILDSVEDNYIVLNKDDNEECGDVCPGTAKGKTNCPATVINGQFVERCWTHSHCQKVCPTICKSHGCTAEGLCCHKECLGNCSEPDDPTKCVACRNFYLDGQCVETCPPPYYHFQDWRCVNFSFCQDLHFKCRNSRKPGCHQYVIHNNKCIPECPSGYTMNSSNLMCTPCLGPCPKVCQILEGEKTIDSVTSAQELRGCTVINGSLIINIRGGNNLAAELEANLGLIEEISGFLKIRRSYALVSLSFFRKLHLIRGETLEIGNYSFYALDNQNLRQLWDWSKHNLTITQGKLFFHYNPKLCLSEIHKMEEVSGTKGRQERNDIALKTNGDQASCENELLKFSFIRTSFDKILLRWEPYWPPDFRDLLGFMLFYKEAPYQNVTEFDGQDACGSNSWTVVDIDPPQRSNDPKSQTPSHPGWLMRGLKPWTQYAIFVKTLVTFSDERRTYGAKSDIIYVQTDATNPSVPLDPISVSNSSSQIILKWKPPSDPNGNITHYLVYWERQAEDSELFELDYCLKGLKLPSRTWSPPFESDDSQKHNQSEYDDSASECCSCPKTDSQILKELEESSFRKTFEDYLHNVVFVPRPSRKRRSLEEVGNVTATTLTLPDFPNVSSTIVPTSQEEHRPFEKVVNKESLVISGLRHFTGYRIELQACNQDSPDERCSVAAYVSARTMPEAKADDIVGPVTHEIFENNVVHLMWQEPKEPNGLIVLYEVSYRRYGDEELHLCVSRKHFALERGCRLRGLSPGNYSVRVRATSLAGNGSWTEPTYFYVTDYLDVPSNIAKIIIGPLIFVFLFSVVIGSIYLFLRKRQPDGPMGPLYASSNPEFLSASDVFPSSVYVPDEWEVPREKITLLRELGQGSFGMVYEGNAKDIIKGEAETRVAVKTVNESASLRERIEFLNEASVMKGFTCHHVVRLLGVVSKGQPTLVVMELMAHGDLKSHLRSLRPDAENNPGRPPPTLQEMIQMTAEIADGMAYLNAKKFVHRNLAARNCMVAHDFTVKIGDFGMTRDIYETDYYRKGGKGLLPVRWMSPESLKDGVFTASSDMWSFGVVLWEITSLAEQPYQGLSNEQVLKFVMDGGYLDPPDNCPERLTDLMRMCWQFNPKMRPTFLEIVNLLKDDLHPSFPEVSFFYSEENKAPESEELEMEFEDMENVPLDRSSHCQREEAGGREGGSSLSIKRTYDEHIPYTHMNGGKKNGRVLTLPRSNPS

Molecule: Humulin: Humulin (human insulin), Eli Lilly
- blood glucose levels in ITT (Insulin tolerance test): lowered
- body weight gain [1]: increased
- C-peptide (insulin secretion) ([1]; serum, 4 h fasted mice): decreased

Molecule: S597-W6A: S597-component-2 mutant, disrupts the IR FnIII-1/S597-component-2 interaction (Ac-SLEEEAAQIECEVYGRGCPSESFYDWFERQL; disulfide 11-18 (inferred))
- IR activation (auto-phosphorylation of IR, pY IR) (IR wild-type (WT)): greatly reduced potency
- blood glucose levels in ITT (Insulin tolerance test): did not reduce
- blood glucose in insulin tolerance assays (Insulin tolerance test): did not reduce glucose levels, but rather elevated them

Molecule: insulin
- pAKT level (IR signaling [3]): significantly increased
- pERK level (IR signaling [3]): neither insulin nor S597 had a statistically significant effect
- pAKT (IR signaling [2]): increased
- pERK (IR signaling [2]): increased
- pY IR (IR signaling [2]): increased
- nuclear translocation of SREBP1 (SREBP1): stimulated to the same level
- cell viability and growth (C2C12 cells): significantly increased

Molecule: insulin-like growth factor 1 [IGF1]
- cell viability and growth (C2C12 cells): significantly increased

B1: S597-N20 (peptide)
peptide: Ac-SLEEEWAQIECEVYGRGCPS
modifications: disulfide 11-18 (inferred)
notes: also called S597-component-2; S597-component-2 alone
- binding result [4]: binds

Now from value to molecule, other results behind:

- IR activation (auto-phosphorylation of IR, pY IR) (IR wild-type (WT)): greatly reduced potency
Molecule: S597-F27A: S597-component-1 mutant, interrupts the IR L1/S597-component-1 interaction (Ac-SLEEEWAQIECEVYGRGCPSESFYDWAERQL; disulfide 11-18 (inferred))
- blood glucose levels in ITT (Insulin tolerance test): did not reduce
- blood glucose in insulin tolerance assays (Insulin tolerance test): did not reduce glucose levels, but rather elevated them

- IR activation (auto-phosphorylation of IR, pY IR) (IR wild-type (WT)): greatly reduced potency
Molecule: S597-N20: N-terminal 20 residues of S597 comprising only component-2 and the linker (Ac-SLEEEWAQIECEVYGRGCPS; disulfide 11-18 (inferred))
- pAKT (IR signaling [2]): did not induce phosphorylation
- pERK (IR signaling [2]): did not induce phosphorylation
- pY IR (IR signaling [2]): did not induce phosphorylation
- blood glucose levels in ITT (Insulin tolerance test): did not reduce
- blood glucose in insulin tolerance assays (Insulin tolerance test): did not reduce glucose levels, but rather elevated them

- stoichiometry (S597: IR dimer) [5]: 2 S597 per IR dimer
B2: S597 (peptide)
peptide: Ac-SLEEEWAQIECEVYGRGCPSESFYDWFERQL
modifications: disulfide 11-18 (inferred)
notes: Component-2 (N-terminal helix), linker, component-1 (C-terminal helix); also called full-length S597
